From US6599501B1, “Immunomodulators” (Steeno Research Group A/S, priority 1994, dated 2003)

Legend:
Format in all cases: cell-based
[1] = tested on: spontaneous IL-8 production by human monocytes; experiment: Spontaneous IL-8 production by purified cultured human monocytes (IL-8 ELISA); settings: any concentration of IT9302 between 0.1 and 1000 ng/ml; this and following examples
[2] = tested on: IL-1β induced IL-8 production by human peripheral blood mononuclear cells (PBMC); experiment: IL-1β induced IL-8 production by human peripheral blood mononuclear cells (IL-8 ELISA); settings: r-hIL-1β 1 ng/ml; 48 hours total incubation
Protocol: PBMC was purified from heparinized blood of normal human donors. Following gradient centrifugation with-Lymphoprep™ (Nycomed Pharma, Oslo, Norway), the mononuclear cells were diluted to 2×10^6 cells/ml in LPS-free RPMI 1640 medium (Gibco Cat.No. 6187-010) containing 1% sterile filtered heat-inactivated fetal calf serum and penicillin (10,000 IE/ml), streptomycin (10 mg/ml) and gentamycin (2.5 mg/ml). Cells were cultured in 24 wells Nunc Micro Plates (Nunc, Denmark) and in the presence of different concentration of IT9302 (0, 1 μg, 100 ng, 10 ng, 1 ng, 0.1 ng, 0.01 ng/ml) for 24 hours. Following 24 hours of incubation, another dose of IT9302 was added once more, and 1 hour later r-hIL-1β (1 ng/ml) was added to the cell cultures. Supernatants were collected after a total of 48 hours of incubation, and the concentration of the secreted IL-8 was measured by IL-8 ELISA by using an IL-8 ELISA Kit (Dainippon Pharmaceutical Co. Ltd, Osaka, Japan). Briefly, standards and cell supernatants were incubated for one hour and in duplicates at 20° C. on a micro-plate shaker. Then after washing, a second antibody was added for one hour, followed by one hour of incubation with peroxidase-labelled goat anti-rabbit IgG. […] Optical density (OD) was measured in an ELISA reader at 490 nm. IL-8 concentration was calculated by a calibration curve of absorbance of unknown vs concentrations of IL-8 standards. […]

[3] = tested on: IRAP production by human monocytes; experiment: Production of interleukin-1 receptor antagonist protein (IRAP) by human monocytes (IRAP ELISA); settings: monocytes stimulated 24 hours
Protocol: PBMC was purified as described above. PBMC was cultured in RMPI 1640, 10% sterile heat-inactivated fetal calf serum (including penicillin 10,000 IE/ml, streptomycin 10 mg/ml, gentamycin 2.5 mg/ml) and the cell concentration was 5×10^6 cells/ml. The monocytes were then purified by standard plastic adherence technique. Monocytes were then cultured in RPMI 1640 with 2% FCS (2.5×10^6 cells/ml) and with different dilutions of rhIL-10 or IT9302. The cells were stimulated for 24 hours and the supernatants were collected for IRAP determination. IRAP ELISA was carried out by using Human IL-1ra Quantikin Immunoassay Kit from R&D Systems Europe Ltd. (Cat.No. DRA 00, Abingdon, Oxon, UK).
The test was performed as described in “Determination of IRAP concentration”.

[4] = tested on: class II MHC molecule expression on human monocytes; experiment: Class II MHC antigen expression on monocytes (rosetting with HLA class II Dynabeads)
Protocol: PBMC was purified as described above and monocytes isolated by plastic adherence technique. Monocytes were then cultured in RPMI 1640 with 2% FCS including penicillin 10,000 IE/ml, streptomycin 10 mg/ml, gentamycin 2.5 mg/ml at a cell concentration of 3×10^6/ml. Cells were stimulated for 40 hours in microwells (Nunc, Denmark) with 100 ng/ml rhIL-10, or IT9302 1 μg/ml, 100 ng/ml, 10 ng/ml. At the end of stimulation, the supernatants were removed and the cells were detached from the plastic by freezing at −20° C. for 20 minutes. The cells were collected in 1 ml of cold HBSS with 1% FCS and sorted at 20° C. by using 50 μl/ml Dynabeads M 450 coated with monoclonal antibody for HLA class II β chain (Cat. No. 210.03). After 20 minutes of incubation, the cells were washed 3 times with cold HBSS with 1% FCS and collected on a magnetic separation device. The cells were diluted in the above buffer and stained with methylene blue, and the resetting cells (cells carrying Dynabeads with HLA class II mAb) were counted.

[5] = tested on: IL-4 production by cultured normal human CD4+ T cells; experiment: IL-4 production by CD4+ T lymphocytes (ECL-Western blotting); settings: 100 ng/ml, 3 days, cytosolic fractions
Protocol: CD4+ T lymphocytes were purified from heparinized normal human blood. Following Lymphoprep™ (Nycomed Pharma, Oslo, Norway) gradient centrifugation, the mononuclear cells were further sorted at 4° C. using Dynabeads (Dynal AS, Norway) coated with monoclonal anti-CD4 antibodies. The beads were detached by adding polyclonal anti-mouse antibody (Dynal AS, Norway). The purity of the positively selected cells were higher than 99% as judged by FACS analysis. […]
Cells or freeze-dried cell culture supernatants were used for IL-4 protein content determination. […] The blots were then incubated with a polyclonal goat anti-human IL-4 antibody (R&D Systems, UK) followed by a horseradish peroxidase-labelled secondary antibody (Cat.no. RPN 2106 ECL, Amersham, UK), and the immunostaining was detected by exposing a film (Kodak X-OMAT-S, USA) for 90 seconds.
Thus, CD4+ T cells, purified as described in “Methods for T cell chemotaxis”, and cultured as described in the section “Determination of IL-4 production by CD4+ T lymphocytes”, were stimulated for 3 days with IT9302 (10 ng/ml) or IL-10 (100 ng/ml). Cytosolic fractions were collected and analyzed for their IL-4 content using Western blotting (FIG. 11) and a goat anti-human IL-4 polyclonal antibody.

Question: How did the “effect on viability of cells” value [1] turn out when “H-AYMTMKIRN-OH [IT9302, NH2-Ala-Tyr-Met-Thr-Met-Lys-Ile-Arg-Asn-COOH]” was run?
Answer: did not in this or in the following examples affect viability

Question: How did the “inhibition of IL-1β induced production of IL-8” value [2] turn out when “NH2-Ser-Pro-Gly-Gln-Gly-Thr-Gln-Ser-Glu-COOH (H-SPGQGTQSE-OH) [IT9301, nonapeptide from the N-terminal end of hIL-10, control for negative results]” was run?
Answer: did not induce any inhibition at all

Question: “rhIL-10: Recombinant human interleukin 10 obtained from Pepro Tech Inc.” was tested. Which “induction of IRAP production” value [3] did it give?
Answer: induction of IRAP

Question: What about the “inhibition of class II MHC expression” value ([4]; 40 hours stimulation) of the same substance?
Answer: inhibits class II MHC expression

Question: What about the “Number of rosetting monocytes” value ([4]; stimulation 100 ng/ml, 40 hours) of the same substance?
Answer: 4.6 ± 1.4 × 10^4

Question: And the “production of IL-4 by CD4+ T cells” value [5]?
Answer: induce the production of IL-4
